Reference: patent publication US9241493B2, “Use of an enaminocarbonyl compound in combination with a biological control agent” (BAYER INTELLECTUAL PROPERTY GMBH, priority 2011, dated 2016)

What was measured:
Assay type in all cases: in vivo
[1] = test system: Green peach aphid (Myzus persicae); assay: Myzus persicae test, foliar application on infested cabbage leaves; settings: 144 h, 100 g ai/ha, foliar spray, 6 d, read-out: Mortality in % after 6 d
Method: Myzus persicae—Foliar Application
(§1) To produce a suitable preparation of active compound, 1 part by weight of active compound is mixed with the stated amount of solvent and emulsifier, and the concentrate is diluted with emulsifier-containing water to the desired concentration. To produce a suitable preparation of a biological suspension the cells or spores are diluted with emulsifier-containing water to the desired concentration.
Cabbage leaves (Brassica oleracea) which are heavily infested by the Green peach aphid (Myzus persicae) are treated by being sprayed with the preparation of the active compound at the desired concentration.
After the specified period of time, mortality in % is determined. 100% means that all the aphids have been killed; 0% means that none of the aphids have been killed. The mortality values thus determined are recalculated using the Colby-formula.

[2] = test system: Green peach aphid (Myzus persicae); assay: Myzus persicae test, spray application on Chinese cabbage leaf discs; settings: foliar, 24 h, 20 g ai/ha, 1 d, read-out: Mortality in % after 1 d
Method: Myzus persicae—Test (Spray Application)
as §1
Chinese cabbage (Brassica pekinesis) leaf—discs infected with all instars of the green peach aphid (Myzus persicae), are sprayed with a preparation of the active ingredient at the desired concentration.
After the specified period of time mortality in % is determined. 100% means that all aphids have been killed; 0% means that none of the aphids have been killed.

[3] = test system: larvae of the Banded Cucumber Beetle (Diabrotica balteata); assay: Diabrotica balteata larvae test, soil application, corn; settings: 60 g ai/ha, mixed into soil, based on number of germinated corn plants
Method: Diabrotica balteata Test/Larvae—Soil Application
as §1, with “spore” for “biological”, “the” for “the cells or”
The preparation containing the active ingredient is thoroughly mixed into the soil. […] The treated soil is filled into pots and sown with 5 corn seeds per pot. 3 days after sowing larvae of the Banded Cucumber Beetle (Diabrotica balteata) are placed in the soil.
After the desired period of time the level of activity expressed in % is determined. The level of activity is calculated on the basis of the number of corn plants which have successfully germinated. The efficacy values determined thus are recalculated using the Colby-formula.

[4] = test system: Seeds of soybean (Glycine max); assay: Seed treatment, germination test soybean; settings: 0.3 g ai/kg seeds (head: g ai/kg seeds)
Method: Seed Treatment—Germination Test Soybean
Seeds of soybean (Glycine max) were treated by being mixed with the desired amount of active compound and spores and water. After drying, 25 seeds were sown into each pot filled with sandy loam.
After 4 days the level of activity expressed in % was determined. The level of activity was calculated on the basis of the number of soybean plants which have successfully germinated.

[5] = test system: mustard beetle larvae (Phaedon cochleariae); assay: Phaedon cochleariae larvae test, spray application on Chinese cabbage leaf discs; settings: foliar, 144 h, 100 g ai/ha, 6 d, read-out: Mortality in % after 6 d
Method: Phaedon cochleariae Larvae—Spray Application
as §1, with “cells, viruses” for “cells”
Chinese cabbage (Brassica pekinesis) leaf—discs are sprayed with a preparation of the active ingredient of the desired concentration. Once dry, the leaf discs are infested with mustard beetle larvae (Phaedon cochleariae).
(§2) After the specified period of time, mortality in % is determined. 100% means that all the beetle larvae have been killed; 0% means that none of the beetle larvae have been killed. The mortality values thus determined are recalculated using the Colby-formula.

[6] = test system: larvae of the mustard beetle (Phaedon cochleariae); assay: Phaedon cochleariae larvae test, foliar application on cabbage leaves; settings: 48 h, 60 g ai/ha, foliar spray, 2 d, read-out: Mortality in % after 2 d
Method: Phaedon cochleariae Larvae—Foliar Application
as §1, with “spore” for “biological”, “the” for “the cells or”
Cabbage leaves (Brassica oleracea) are treated by being sprayed with the preparation of the active compound of the desired concentration and are infested with larvae of the mustard beetle (Phaedon cochleariae) as long as the leaves are still moist.
as §2

With O=C1C=C(N(Cc2ccc(Cl)nc2)CC(F)F)CO1 [Compound (I-3), 4-{[(6-Chloropyrid-3-yl)methyl](2,2-difluorethyl)amino}furan-2(5H)-one] the mortality at 100 g/ha [1] was 90%, the mortality at 20 g/ha [2] was 0% and the “Efficacy in % after 5 d” value [3] was 75%. The “Germination in % related to untreated control, evaluation after 4 d” value [4] was 72.73%, the mortality at 100 g/ha [5] was 0% and the mortality at 60 g/ha [6] was 20%.
